Tests used:
[1] = tested on: SK-OV-3 cell line; conditions: National Cancer Institute database; cited from earlier work
[2] = tested on: NCI-H460 cell line; conditions: National Cancer Institute database; cited from earlier work
[3] = tested on: A549 cell line; conditions: National Cancer Institute database; cited from earlier work
[4] = tested on: A549, H460 and A172 cell lines; test: Antiproliferative activity test (Alamar Blue, 72 hours), statements across cell lines; assay type: cell-based, human; conditions: result in words; for induction of cell death: no data are shown
Source text: (§1) Antiproliferative activities of exiguolide and its analogs shown in Examples were examined using A549 and H460 cell lines derived from lung cancer and an A172 cell line derived from human glioblastoma cells. Each cell line was maintained in an RPMI 1640 medium supplemented with 10% fetal bovine serum (in the cases of the H460 cell line and the A172 cell line) or in a DMEM medium supplemented with 10% fetal bovine serum (in the case of the A549 cell line). Cells in the proliferative phase were seeded in a 96-well plate in triplicate and were cultured for 72 hours in the presence of the compound at various concentrations. At the completion of the culture period, an Alamar Blue solution (Invitrogen Corporation) was added to each culture in an amount of 1/10 of that of the medium, followed by leaving to stand for 3 hours. The fluorescence intensity was measured with Fluoroskan Ascent (Thermo Fisher Scientific K.K.). […] The fluorescence intensities of experimental groups were determined as relative intensities to that of the control group and were plotted. The concentration of a compound for achieving the 50% growth inhibition (IC50) of each cancer cell line was calculated by a non-linear regression model of standard slope using the GraphPad Prism software.

[5] = tested on: A549 cell line derived from lung cancer; test: Antiproliferative activity test (Alamar Blue, 72 hours); assay type: cell-based, human; conditions: read-out: IC50 (50% growth inhibition)
Source text: as §1

[6] = tested on: H460 cell line derived from lung cancer; test: as above; assay type: cell-based, human; conditions: read-out: IC50 (50% growth inhibition)
Source text: as §1

[7] = tested on: A172 cell line derived from human glioblastoma cells; test: as above; assay type: cell-based; conditions: read-out: IC50 (50% growth inhibition)
Source text: as §1

[8] = tested on: SK-OV-3 (human ovarian carcinoma); test: Drug sensitivity test, panel of human cultured cancer cell lines (sulforhodamine B colorimetry); assay type: cell-based
Procedure: (§2) The anticancer activity of exiguolide was examined by an in vitro drug sensitivity test using a panel of 39 human cultured cancer cell lines, by Professor Yamori, Molecular Pharmacology, Cancer Chemotherapy Center of Japanese Foundation for Cancer Research upon request.
(§3) The test was performed by seeding seven lung cancer cell lines, six gastric cancer cell lines, five colon cancer cell lines, five ovarian cancer cell lines, six brain cancer cell lines, five breast cancer cell lines, two kidney cancer cell lines, two prostatic cancer cell lines, and one melanoma cell line, 39 cell lines in total, in a 96-well plate, adding a sample solution containing a predetermined concentration of exiguolide to each well on the following day, culturing the cell lines for two days, and measuring the cell growth by colorimetry with sulforhodamine B. The measurement results were input into a computer, and the sensitivity patterns (growth rate and finger print, described below) of each cell line on exiguolide were analyzed using three parameters, GI50, TGI, and LC50, as indices. The data were also subjected to analysis comparing with sensitivities on known compounds showing cell growth-inhibiting activities.
(§4) The growth rate percentages were plotted with respect to drug concentrations (logarithm) for each cell line, and the growth rates (%) were summarized on each organ cancer (FIG. 3: dose-response curves). In each curve, the concentrations at the points at which the growth rates 50%, 0%, and -50% intersect horizontal lines correspond to log GI50, log TGI, and log LC50, respectively.
(§5) The average of log GI50 values of all cell lines tested was determined. The difference between this average and log GI50 value of each cell line (e.g., how much the GI50 of each cell line is high or low relative to the average is shown as logarithmic value) was determined, and the results were drawn as a bar graph extending left or right from the center showing the average log GI50 value (scale: 0) to form finger prints (FIG. 4). A cell line having higher sensitivity is drawn as a longer bar extending to the right side.

[9] = tested on: NCI-H460 (human lung large cell carcinoma); test: as above; assay type: cell-based
Procedure: as §2, §3, §4, §5

[10] = tested on: A549 (human lung adenocarcinoma); test: as above; assay type: cell-based
Procedure: as §2, §3, §4, §5

[11] = tested on: MKN74 (human gastric carcinoma); test: as above; assay type: cell-based
Procedure: as §2, §3, §4, §5

[12] = tested on: tumors induced by human lung cancer cell line A549; test: In vivo antitumor activity test, subcutaneous tumor in immunodeficient mice; parameters: species or system mice (BALB/cAJcl-nu/nu); conditions: printed 'in the H460 cell line', 0.2 mg/kg intraperitoneally once a day
Procedure: (§6) Immunodeficient mice (BALB/cAJcl-nu/nu) were subcutaneously inoculated with human lung cancer cells (H460, A549, etc.). When the subcutaneous tumor volume reached approximately 200 mm^3, the mice were divided into an exiguolide administration group (n=2) and a control group (n=4) at random. The administration group was intraperitoneally administered with 0.2 mg/kg of exiguolide, and the control group with PBS (200 μL) and DMSO (5 to 10 μL), every day (once a day). […] The subcutaneous tumors were recognized from the body surface, and the change in tumor diameter was measured with a vernier caliper. […] After completion of the observation, the mice were euthanized with halothane. The tumors were extracted and were subjected to observation of the size, weight, and pathological findings.
(§7) The results are shown in FIG. 8 (H460) and FIG. 9 (A549). In each graph, the vertical axis (relative volume) represents the relative values of the estimated tumor volume of each group to that on the day 0, where the estimated tumor volume is expressed using a major axis “a” and a minor axis “b” by (a×b^2)/2.

[13] = tested on: tumors induced by human lung cancer cell line H460; test: as above; parameters: species or system mice (BALB/cAJcl-nu/nu); conditions: 0.2 mg/kg intraperitoneally once a day, 15 days
Procedure: as §6, §7

[14] = tested on: H460 cell line; conditions: H460 exposed to 1 μM
Procedure: The cell-cycle arrest activity of exiguolide was investigated. The H460 cell line was exposed to 1 μM of exiguolide, and the ratio of cells at each cell cycle phase was measured with a flow cytometer. The DNA staining reagent used was propidium iodide. The A549 cell line was exposed to exiguolide (0.01 to 5 μM) for 72 hours, and then the activity of a cell cycle regulator, Rb, was measured by Wester blotting.

[15] = tested on: Rb phosphorylation in A549 cell line; test: Activity of cell cycle regulator Rb by Western blotting; assay type: cell-based, human; conditions: A549 exposed to 0.01 to 5 μM for 72 hours
[16] = tested on: Hemicentrotus pulcherrimus; conditions: Non Patent Literature 1; cited from earlier work
[17] = concentration inducing 50% cell death, read-out: LC50 (the source's name)
[18] = concentration inducing 50% growth inhibition, two days culture

In the case of CCC/C=C/C=C/C(=O)O[C@H]1/C(=C/C(=O)OC)C[C@H]2C[C@H]([C@@H](C)O)OC(=O)C[C@H](O)C[C@@H]3C[C@H](OC(C)=O)C(C)(C)[C@](O)(C[C@@H]4C/C(=C/C(=O)OC)C[C@H](/C=C/C(C)(C)[C@]1(O)O2)O4)O3 [bryostatin 1], the “antiproliferative activity (log value compared with Log GI50)” value [1] is listed as −5.3, the “antiproliferative activity (log value compared with Log GI50)” value [2] is listed as −5.6 and the “antiproliferative activity (log value compared with Log GI50)” value [3] is listed as −5.4.
For CCCCC=C/C=C/C1OC(=O)CC2C[C@H](O)C[C@H](CC3CCC[C@H](C[C@@H](C)/C=C/[C@@H]1C)O3)O2 (stereo partly shown) [analog 4], the cell growth-inhibiting effect [4] was “remarkable cell growth-inhibiting effects” and the “induction of cell death” value [4] was “active induction of cell death was observed”.
In the case of COC(=O)C/C(C)=C/C=C\C=C\C1OC(=O)CC2CC(=O)C[C@H](CC3CCC[C@H](C[C@@H](C)/C=C/[C@@H]1C)O3)O2 (stereo partly shown) [analog 7], the cell growth-inhibiting effect [4] is reported as “remarkable cell growth-inhibiting effects” and the “induction of cell death” value [4] is reported as “active induction of cell death was observed”.
COC(=O)/C=C1\C[C@H]2CC(=O)O[C@@H](/C=C/C=C\C=C(/C)CC(=O)OC)[C@@H](C)/C=C/[C@H](C)C[C@H]3CCC[C@@H](C[C@@H](C1)O2)O3 [exiguolide, (−)exiguolide] showed an IC50 [5] of 590 nM, an IC50 [6] of 280 nM and an IC50 [7] of 460 nM. For the same compound, the CC50 [8, 17] was > 100000 nM, the GI50 [8, 18] was 700 nM and the “Log GI50” value [8, 18] was −6.15. For the same compound, the LC50 ([9]; concentration inducing 50% cell death) was > 100000 nM, the GI50 [9, 18] was 10 nM and the “Log GI50” value [9, 18] was −8.00. The CC50 [10, 17] was > 100000 nM, the GI50 [10, 18] was 650 nM and the “Log GI50” value [10, 18] was −6.19. The CC50 [11, 17] was > 100000 nM, the GI50 [11, 18] was 690 nM and the “Log GI50” value [11, 18] was −6.16. The “relative tumor weight ratio (administration group/control group) at the end of the experiment” value ([12]; second of two ratios) was 0.33, the “relative tumor weight of administration group at the end of the experiment” value ([12]; second of two values) was 1.17 and the “relative tumor weight of administration group at the end of the experiment” value [13] was 3.35. For the same compound, the “relative tumor weight ratio (administration group/control group) at the end of the experiment” value [13] was 0.17, the “ratio of cells at G1 phase in cell cycle” value [14] was “consistently increased the ratio of the G1 phase in cell cycle” and the “phosphorylation of G1-regulating protein Rb” value [15] was “decreased with an increase in concentration of exiguolide”. For the same compound, the “activity of inhibiting maturation of ova and spermatozoa” value [16] was “activity of inhibiting maturation of ova and spermatozoa”.
With COC(=O)C/C(C)=C/C=C\C=C\C1OC(=O)CC2C[C@H](O)C[C@H](CC3CCC[C@H](C[C@@H](C)/C=C/[C@@H]1C)O3)O2 (stereo partly shown) [analog 1] the cell growth-inhibiting effect [4] was “remarkable cell growth-inhibiting effects” and the “induction of cell death” value [4] was “active induction of cell death was observed”.
